What was measured:
Galectin-3 = Galectin-3 (Homo sapiens, UniProt P17931); experiment: Inhibitory Activity Assay
Experimental: (§1) The inhibitory activity of compounds is determined in competitive binding assays. This spectrophotometric assay measures the binding of biotinylated human Gal-3 (hGal-3) or human Gal-1 (hGal-1), respectively, to a microplate-adsorbed glycoprotein, asialofetuin (ASF) (Proc Natl Acad Sci USA. 2013 Mar. 26; 110(13):5052-7.). Alternatively, and preferably, a human Gal-1 version in which all six cysteines are substituted by serines may be used.Briefly, compounds are serially diluted in DMSO (working dilutions). ASF-coated 384 well plates are supplemented with 22.8 μL/well of biotinylated hGal-3 or hGal-1 in assay buffer (i.e. 300-1000 ng/mL biotinylated hGal-3 or hGal-1) to which 1.2 μL of compound working dilutions are added and mixed.Plates are incubated for 3 hours at 4° C., then washed with cold assay buffer (3×50 uL), incubated for 1 hour with 25 μL/well of a streptavidin-peroxidase solution (diluted in assay buffer to 80 ng/mL) at 4° C., followed by further washing steps with assay buffer (3×50 uL). Finally, 25 μL/well of ABTS substrate is added.

Galectin-1 = Galectin-1 (Homo sapiens, UniProt P09382); experiment: Inhibitory Activity Assay
Experimental: as §1

Chain of Galectin-3 (P17931 whole entry): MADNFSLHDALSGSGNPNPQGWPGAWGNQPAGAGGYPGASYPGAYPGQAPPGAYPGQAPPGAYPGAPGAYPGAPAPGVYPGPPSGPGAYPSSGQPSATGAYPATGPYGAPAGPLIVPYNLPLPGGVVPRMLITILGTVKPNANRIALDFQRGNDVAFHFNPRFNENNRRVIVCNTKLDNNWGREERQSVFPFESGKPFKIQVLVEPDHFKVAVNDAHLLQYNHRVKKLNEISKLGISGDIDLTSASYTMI
Chain of Galectin-1 (P09382 whole entry): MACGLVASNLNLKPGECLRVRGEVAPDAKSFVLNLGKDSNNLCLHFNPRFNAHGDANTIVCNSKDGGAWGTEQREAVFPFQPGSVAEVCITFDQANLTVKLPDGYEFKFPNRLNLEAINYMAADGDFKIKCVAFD

Row | Compound | IC50 (Galectin-3) | IC50 (Galectin-1)
1 | CC(C)(C)c1cc(C[C@H]2O[C@H](CO)[C@H](O)[C@H](n3cc(-c4ccc(Cl)c(F)c4F)nn3)[C@H]2O)on1 [US12319672, Example 1.302] | 36 nM | 1000 nM
2 | CO[C@@H]1[C@@H](n2cc(-c3ccc(Cl)c(F)c3F)nn2)[C@@H](O)[C@@H](CO)O[C@@H]1Cc1cc(C2(C#N)CCCC2)on1 [US12319672, Example 1.279] | 120 nM | 3210 nM
3 | CC(=O)N1CCC(c2cc(C[C@H]3O[C@H](CO)[C@H](O)[C@H](n4cc(-c5cc(F)c(F)c(F)c5)nn4)[C@H]3O)no2)CC1 [US12319672, Example 3.17] | 46 nM | 960 nM
4 | CO[C@@H]1[C@@H](n2cc(-c3ccc(F)c(F)c3F)nn2)[C@@H](O)[C@@H](CO)O[C@@H]1Cc1cc(C2(C#N)CCCC2)on1 [US12319672, Example 1.277] | 140 nM | 1470 nM
5 | CO[C@@H]1[C@@H](n2cc(-c3cc(F)c(Cl)c(F)c3)nn2)[C@@H](O)[C@@H](CO)O[C@@H]1Cc1cc(C2CCN(C(C)=O)CC2)on1 [US12319672, Example 1.167] | 40 nM | 910 nM

The remaining compounds from weak to strong by IC50 (Galectin-3), led by results:

Row | IC50 (Galectin-3) | IC50 (Galectin-1) | Compound
6 | 4040 nM | 3840 nM | Cc1nc2ccc(-c3cn([C@H]4[C@@H](O)[C@@H](CO)O[C@H](CC5CC(C6CCN(C(=O)OC(C)(C)C)CC6)=NO5)[C@@H]4O)nn3)cc2s1 (some centres undefined) [US12319672, Example 1.299]
7 | 540 nM | > 100000 nM | CO[C@@H]1[C@@H](n2cc(-c3ccc(F)c(F)c3F)nn2)[C@@H](O)[C@@H](CO)O[C@@H]1Cc1cc(-c2ccc(F)c(F)c2F)on1 [US12319672, Example 1.230]
8 | 470 nM | 5090 nM | CO[C@@H]1[C@@H](n2cc(-c3cc(F)c(F)c(F)c3)nn2)[C@@H](O)[C@@H](CO)O[C@@H]1CC1=NOC(C(C)(C)O)C1 (some centres undefined) [US12319672, Example 1.68]
9 | 200 nM | 15700 nM | CO[C@@H]1[C@@H](n2cc(-c3ccc(C)c(F)c3F)nn2)[C@H]2OC(C)(C)OC[C@H]2O[C@@H]1Cc1cc(C(C)c2ccccc2)no1 (some centres undefined) [US12319672, Example 1.341]
10 | 81 nM | 1450 nM | CO[C@@H]1[C@@H](n2cc(-c3ccc(C)c(F)c3F)nn2)[C@@H](O)[C@@H](CO)O[C@@H]1Cc1cc(C2(O)CCC2)no1 [US12319672, Example 2.57]
11 | 43 nM | 710 nM | CO[C@@H]1[C@@H](n2cc(-c3ccc(Cl)c(F)c3F)nn2)[C@@H](O)[C@@H](CO)O[C@@H]1Cc1cc(C2CCN(C(C)=O)CC2)on1 [US12319672, Example 1.163]
12 | 22 nM | 1050 nM | CO[C@@H]1[C@@H](n2cc(-c3ccc(Br)c(F)c3F)nn2)[C@@H](O)[C@@H](CO)O[C@@H]1Cc1cc(C2CCN(S(C)(=O)=O)CC2)on1 [US12319672, Example 1.155]
